# Values quoted from earlier work, collected in US20130143970A1, “MEDICINAL PREPARATION PARTICULARLY FOR THE TREATMENT OF SLIPPED DISCS HERNIAS” (priority 2002, published 2013).
# Details: intradiscal injections
smiles,measurement,value
"CCO [absolute alcohol, ethanol]",treatment results in lumbar discal hernias,very promising results
